In test [1] the test system is ERK1/2 phosphorylation. Kind of test: ERK1/2 phosphorylation in human epidermal melanocytes. To be noted: HEMs. The test is classed as cell-based. From the text:
Cell Lines. The human melanoma cell lines A375, A2058 and Me1624 were obtained from Cassian Yee (Fred Hutchinson Cancer Research Institute; Seattle, Wash.). The human melanoma cell lines COLO-829, SKMEL28, SKMEL5 were purchased from ATCC (Manassas, Va.). Human Epidermal Melanocytes, adult, lightly pigmented donor, (HEMa-LP) (C0245C) were purchased from Invitrogen (Carlsbad, Calif.). Stable BAR cell lines were generated as previously described (23). BAR luciferase cell lines were also infected with a lentivirus carrying Renilla luciferase driven by a constitutive EFlalpha promoter.
Cell Culture. The human melanoma lines A375, A2058 were cultured in DMEM supplemented with 5% FBS and 1% antibiotic. The human melanoma lines SK-MEL-5 and SK-MEL-28 were grown in EMEM supplemented with 10% FBS and 1% antibiotic. The human melanoma lines COLO-829 and MEL-624 were grown in RPMI supplemented with 10% FBS and 1% antibiotic HEMa-LP cells were cultured in medium 254 supplemented with 1% HMGS and 1% antibiotic (Invitrogen Carlsbad, Calif.). Synthetic siRNAs were transfected into cultured cells at a final concentration of 20 nM using RNAiMAX (Invitrogen; Grand Island, N.Y.).

Test [2] relates to MEL624. Kind of test: qPCR of endogenous Wnt target gene AXIN2, MEL624. The test is classed as cell-based, human. To be noted: WNT3A CM, 2 μM PLX4720, 24 hours. An excerpt:
RNA purification and qRT-PCR analysis. RNA was purified using the RNeasy kit following the manufacturer's protocol (Qiagen; Maryland, Md.). cDNA was synthesized using RevertAid™ M-MuLV Reverse Transcriptase (Fermentas; Ontario, CAN). Light Cycler FastStart DNA Master SYBR Green1 (Roche; Mannheim, Germany) was used for real-time PCR as previously described (53). Quantitative PCR results presented in the manuscript are averages of a minimum of three biologic replicates.

The subject of test [3] is Wnt/β-catenin signaling. As to the kind of experiment: β-catenin activated reporter (BAR) luciferase assay in A375 melanoma cells.
Excerpt: By way of non-limiting example, Wnt/β-catenin signaling can be measured using the BAR reporter described in detail elsewhere herein. Briefly, the BAR (β-catenin activated reporter) is a lentiviral plasmid which provides for expression of luciferase in response to Wnt/β-catenin signaling. Output can be measured with an automated luminescence plate reader.
Detailed information on the β-catenin activated reporter (BAR) has been previously described (23). Briefly, the β-catenin activated reporter (pBAR) is a lentiviral plasmid that contains 12 TCF/LEF binding sites (5′-[sequence]-3′) each separated by distinct 5 base-pair linkers upstream of a minimal promoter and the firefly luciferase open reading frame. The reporter also contains a separate PGK promoter that constitutively drives the expression of a puromycin resistance gene for mammalian cell selection. […] PLX4720 was purchased from Symansis (Australia cat# SY-PLX4720). CHIR99021 was purchased from Axon MedChem (Gronigen, Netherlands catalog #Axon1386). Z-VAD-FMK was purchased from R&D systems (Minneapolis, Minn. cat# FMKSP01).
Low throughput BAR reporter assays. Cells were plated in 96-well plates.
Test [4] deals with A375. Kind of test: Flow cytometry for active (cleaved) caspase-3, A375. It is filed as cell-based, human. As to the method:
Flow cytometry for Active Caspase-3. Cells were seeded in a 6-well dish at a density to achieve 90-100% confluence at harvest. 24 hours after seeding, cells were treated with the indicated conditions for the indicated amount of time. At the time of collection, supernatants were collected and pooled with trypsinized cells. Cells were fixed with 4% paraformaldehyde and permeabilized according to vendor's protocol for Cleaved Caspase-3 (Asp175) Antibody (AlexaFluor 488 Conjugate) (catalog #9669) (Cell Signaling, Beverly Mass.). The antibody was used at a final dilution of 1:100. Flow was performed on a BD FACSCanto H, and data analysed with FlowJo 8.8.6 (Tree Star) software. Experiments were performed with biological triplicates and data are representative of at least three independent experiments. For experiments involving siRNAs, cells were reverse transfected with 20 nM siRNA in 6-well dishes in triplicate with RNAiMax according to manufacturer's protocol. 48 hours following transfection, cells were treated with the indicated conditions for 24 hours and then harvested for analysis. Cells were harvested, stained, and analyzed as described above.

Test [5] relates to ppERK1/2. Kind of test: Capillary-based isoelectric focusing of ppERK1/2 in fine needle aspirates of xenograft tumors. It is filed as in vivo, mouse. The note with it: two hours after initial 50 mg/kg PLX4720 vs baseline. As to the method:
FIG. 10A depicts a schematic representation of the capillary-based isoelectric focusing method of detecting levels of ppERK1/2 in fine needle aspirates of xenograft tumors from vehicle or PLX4720 treated mice (top panel). Fine needle aspiration procedures (FNA) were performed on xenograft tumors three days prior to treatment for baseline samples and 2 hours after the initial oral gavage treatment of 50 mg/kg PLX4720. FNAs were analyzed for ppERK1/2 and HSP70 for normalization by capillary-based isoelectric focusing on a Nanopro1000 instrument (Cell Biosciences)(bottom panel). […] FNAs of xenograft tumors three days before treatment (baseline) or two hours following the initial treatment of 50 mg/kg PLX4720 were analyzed for ppERK1/2 and normalized to levels of HSP70. Columns and error bars represent the mean and standard deviation, respectively, from three xenograft tumors. […] FIG. 10D is a graph of results from an experiment in which xenograft tumors from FIG. 2A were sectioned, stained with hematoxylin- and eosin, and analyzed for mitotic cells by microscopy under high-power as described elsewhere herein. […]
Xenograft assays. […] Tumor size was determined by caliper measurements of tumor length and width every 3 to 4 days. Tumor volume was then calculated using the following formula: volume=(width)^2×length/2. […]

Test [6] has as its system A375 cells. As to the kind of experiment: Immunoblot of apoptosis markers (cleaved caspase-3, cleaved PARP1) in A375 cells. It is filed as cell-based, human.
Test [7] has as its system BAD and Bim (BCL2L11). As to the kind of experiment: Immunoblot of BH3-only proteins BAD and Bim in A375 cells. The test is classed as cell-based, human.
Test [8] concerns GSK3β. As to the kind of experiment: Immunoblot for activating auto-phosphorylation of GSK3β in A375 cells. It is filed as cell-based, human.
The test system of test [9] is A375 melanoma cells. Kind of test: Isobologram analysis of cell viability (CellTiter-Glo). It is filed as cell-based, human.
Description: Isobologram Analysis of Cell Viability. A375 melanoma cells were seeded in 96-well plates at a concentration of 8,000 cells/well in 100 μl of growth media. 24 hours after plating, cells were treated with all combinations of 2-fold dilutions of WNT3A CM ranging from 20% to 0% and 2-fold dilutions of PLX4720 ranging from 5 μM-0 μM for 48 hours. 10 uL of CellTiter-Glo (Promega Madison, Wis.) was added to each well and total luminescence was measured on an Envision multilabel plate reader (Perkin Elmer Waltham, Mass.). Each condition within an experiment was assayed in triplicate wells and three independent experiments were performed.
Dose-effect analyses, including combination indices, dose reduction indices and median-effect analysis for FIGS. 9A-9C and FIGS. 11A-11C were performed using the method of Chou and Talay (55) via the CalcuSyn software suite (Biosoft, Cambridge UK), version 2.1.

For `CCCS(=O)(=O)Nc1ccc(F)c(C(=O)c2c[nH]c3ncc(Cl)cc23)c1F` [PLX4720, N-[3-[(5-Chloro-1H-pyrrolo[2,3-b]pyridin-3-yl)carbonyl]-2,4-difluorophenyl]-1-propanesulfonamide], the ERK1/2 phosphorylation entry in test [1] is “no effect”. The “SYNERGISTIC WNT ACTIVATION WITH PLX4720?” value in test [2] is listed as “YES”. In addition, the “activation of BAR” value in test [3] (A375, PLX4720 on its own) is recorded as “does not lead to any measurable activation of BAR on its own”. For the same compound, the “Wnt/β-catenin signaling (BAR activity)” value in test [3] (A375, in the presence of WNT3A) is listed as “enhanced Wnt/β-catenin signaling in a dose-dependent manner”. Besides, the “Combination indices (BAR activity)” value in test [3] (WNT3A and PLX4720, fixed ratio doses, particularly at higher levels of BAR activity) is “less than 1”. For the same compound, the “increase in cleaved caspase-3” value in test [4] (A375, WNT3A CM plus 2 μM PLX4720, 24 hours) was 5-20 fold. Further, the “cleaved caspase-3” value in [4] (A375, single agent alone, 24 hours) is “minimal increases in cleaved caspase-3”. In [4] (A375, WNT3A, 2 μM PLX4720, 24 hours), the “SYNERGISTIC APOPTOSIS WITH WNT AND PLX4720?” value is “YES”. In addition, the “ppERK2 in xenograft tumors (normalized to HSP70)” value in [5] is listed as “significantly less ppERK2”. In [6] (A375, WNT3A and PLX4720 time course), the “time at which cleaved caspase-3 was first detected” value lay in the range of 12 to 16 h. In addition, the “cleavage of the caspase-3 substrate PARP1” value in [6] (A375, combined WNT3A and 2 μM PLX4720, 24 hours) is “synergistic cleavage of the caspase-3 substrate, PARP1”. Further, the caspase3 activation entry in [6] (A375, longer treatment with PLX4720, no exogenous WNT3A) is given as “led to activation of caspase3”. Moreover, in test [7] (A375, 2 μM PLX4720, 24 hours), the “phosphorylation of BimEL” value is reported as “decreased phosphorylation of the largest Bim isoform, BimEL”. The “phosphorylation of Ser75 on BAD” value in [7] (A375, 24 hours) is recorded as “decreased Ser75 phosphorylation”. Moreover, in test [7] (A375, combination of WNT3A and PLX4720, 24 hours), the “BimL and BimS levels” value is “marked increase in BimL and BimS”. Besides, the “activating auto-phosphorylation of GSK3B” value in test [8] is “lost”. In addition, the drug reduction indices in test [9] (combination of WNT3A CM and PLX4720, at 50% growth inhibition) was 8.1. Further, the “combination indices (inhibition of cell growth)” value in test [9] (combination of WNT3A and PLX4720, 48 hours) was “less than 1”.

The values are drawn from patent US20120059021A1, “COMPOSITIONS AND METHODS FOR TREATING CANCER AND METHODS FOR PREDICTING A RESPONSE TO SUCH TREATMENTS” (UNIVERSITY OF WASHINGTON, priority 2008, published 2012).
